# Results from patent US20130295692A1, “MEANS AND METHODS FOR PREDICTING DIABETES” (METANOMICS HEALTH GMBH, priority 2010, published 2013).
# Structures can show the parent of a compound that is named as a salt.
# System: healthy rat plasma glyoxylate concentrations
# Test: Rats treated with anti-diabetic drug metformin: 28-day oral gavage study, plasma metabolite profiling of glyoxylate
# Format: in vivo
# Conditions: for Ratio treatment/control of plasma glyoxylate: fasted plasma
# Experimental: Two groups of each 5 male and female rats was dosed once daily with the indicated compounds with a different dose per group (see below) over 28 days.
# Each dose group in the studies consisted of five rats per sex. Additional groups of each 15 male and 15 female animals served as controls. Before starting the treatment period, animals, which were 62-64 days old when supplied, were acclimatized to the housing and environmental conditions for 7 days. All animals of the animal population were kept under the same constant temperature (20-24±3° C.) and the same constant humidity (30-70%). The animals of the animal population were fed ad libitum. The food to be used was essentially free of chemical or microbial contaminants. Drinking water was also offered ad libitum. Accordingly, the water was free of chemical and microbial contaminants as laid down in the European Drinking Water Directive 98/83/EG. The illumination period was 12 hours light followed by 12 hours darkness (12 hours light, from 6:00 to 18:00, and 12 hours darkness, from 18:00 to 6:00). The studies were performed in an AAALAC-approved laboratory in accordance with the German Animal Welfare Act and the European Council Directive 86/609/EE. The test system was arranged according to the OECD 407 guideline for the testing of chemicals for repeated dose 28-day oral toxicity study in rodents. The test substance was dosed and administered as follows:
# Metformin hydrochloride was administered by gavage (high dose group at 1 g/kg body weight, low dose group at 0.2 g/kg body weight), in drinking water containing 0.5% Carboxymethyl cellulose (Tylose CB30000) (administration volume: 10 ml/kg body weight).
# In the morning of day 7, 14, and 28, blood was taken from the retroorbital venous plexus from fasted anaesthetized animals. From each animal, 1 ml of blood was collected with EDTA as anticoagulant. The samples were centrifuged for generation of plasma. All plasma samples were covered with a N2 atmosphere and then stored at −80° C. until analysis.
# For mass spectrometry-based metabolite profiling analyses plasma samples were extracted and a polar and a non-polar (lipid) fraction was obtained. For GC-MS analysis, the non-polar fraction was treated with methanol under acidic conditions to yield the fatty acid methyl esters. Both fractions were further derivatised with O-methyl-hydroxyamine hydrochloride and pyridine to convert Oxo-groups to O-methyloximes and subsequently with a silylating agent before analysis. In LC-MS analysis, both fractions were reconstituted in appropriate solvent mixtures. HPLC was performed by gradient elution on reversed phase separation columns. Mass spectrometric detection which allows target and high sensitivity MRM (Multiple Reaction Monitoring) profiling in parallel to a full screen analysis was applied as described in WO2003073464.
# Following comprehensive analytical validation steps, the data for each analyte were normalized against data from pool samples. These samples were run in parallel through the whole process to account for process variability. The significance of treatment group values specific for sex, treatment duration and metabolite was determined by comparing means of the treated groups to the means of the respective untreated control groups using WELCH-test and quantified with treatment ratios versus control and p-values.
smiles,measurement,setting,value
"CN(C)C(=N)NC(=N)N [Metformin hydrochloride, N,N-dimethylimidodicarbonimidic diamide]",Ratio treatment/control of plasma glyoxylate,"High Dose 1 g/kg body weight by gavage once daily, female rats, day 7 (f7)",0.82
same,Ratio treatment/control of plasma glyoxylate,"High Dose 1 g/kg body weight by gavage once daily, female rats, day 14 (f14)",0.58
same,Ratio treatment/control of plasma glyoxylate,"High Dose 1 g/kg body weight by gavage once daily, female rats, day 28 (f28)",0.52
same,Ratio treatment/control of plasma glyoxylate,"High Dose 1 g/kg body weight by gavage once daily, male rats, day 7 (m7)",0.22
same,Ratio treatment/control of plasma glyoxylate,"High Dose 1 g/kg body weight by gavage once daily, male rats, day 14 (m14)",0.29
same,Ratio treatment/control of plasma glyoxylate,"High Dose 1 g/kg body weight by gavage once daily, male rats, day 28 (m28)",0.58
same,Ratio treatment/control of plasma glyoxylate,"Low Dose 0.2 g/kg body weight by gavage once daily, female rats, day 7 (f7)",1.01
same,Ratio treatment/control of plasma glyoxylate,"Low Dose 0.2 g/kg body weight by gavage once daily, female rats, day 14 (f14)",0.72
same,Ratio treatment/control of plasma glyoxylate,"Low Dose 0.2 g/kg body weight by gavage once daily, female rats, day 28 (f28)",0.64
same,Ratio treatment/control of plasma glyoxylate,"Low Dose 0.2 g/kg body weight by gavage once daily, male rats, day 7 (m7)",0.59
same,Ratio treatment/control of plasma glyoxylate,"Low Dose 0.2 g/kg body weight by gavage once daily, male rats, day 14 (m14)",0.65
same,Ratio treatment/control of plasma glyoxylate,"Low Dose 0.2 g/kg body weight by gavage once daily, male rats, day 28 (m28)",0.44
same,Effect on glyoxylate concentrations in rat model system (summary in words),"rat model system, summary of Table 8",capable of reducing glyoxylate concentrations
